How the values were obtained:
Assay type in all cases: biochemical
[1] = target: T1, human VEGF receptor (VEGFR-2) (Homo sapiens, UniProt P35968); experiment: VEGFR2 kinase assay; details: His-VEGFR-2 cytoplasmic domain, 3.6 μM ATP; Table IV, amide or urea linker; read-out: VEGFR2 Enzyme IC50
T1 construct: The cytoplasmic domain of the human VEGF receptor (VEGFR-2) was expressed; His; made in house; host or cells: insect cells (baculovirus)
Method: The cytoplasmic domain of the human VEGF receptor (VEGFR-2) was expressed as a Histidine-tagged fusion protein following infection of insect cells using an H is engineered baculovirus. […] Kinase assays were performed in 96 well microtiter plates that were coated overnight with 30 µg of poly-Glu-Tyr (4:1) in 10 mM Phosphate Buffered Saline (PBS), pH 7.2-7.4. The plates were incubated with 1% BSA and then washed four times with PBS prior to starting the reaction. Reactions were carried out in 120 µL reaction volumes containing 3.6 µM ATP in kinase buffer (50 mM Hepes buffer pH 7.4, 20 mM MgCl2, 0.1 mM MnCl2 and 0.2 mM Na3 VO4). […] Reactions were initiated by the addition 0.5 ng of purified protein. Following a ten minute incubation at 25 degree. […] IC50 values for compound inhibition were calculated directly from graphs of optical density (arbitrary units) versus compound concentration following subtraction of blank values.

PDGFβ = PDGFβ (Homo sapiens, UniProt P09619); experiment: PDGFβ enzyme assay; details: Table IV, amide or urea linker
VEGFR1 = VEGFR1 (Homo sapiens, UniProt P17948); experiment: VEGFR1 enzyme assay; details: Table IV, amide or urea linker
VEGFR1, sequence (P17948 27-1338, species assumed): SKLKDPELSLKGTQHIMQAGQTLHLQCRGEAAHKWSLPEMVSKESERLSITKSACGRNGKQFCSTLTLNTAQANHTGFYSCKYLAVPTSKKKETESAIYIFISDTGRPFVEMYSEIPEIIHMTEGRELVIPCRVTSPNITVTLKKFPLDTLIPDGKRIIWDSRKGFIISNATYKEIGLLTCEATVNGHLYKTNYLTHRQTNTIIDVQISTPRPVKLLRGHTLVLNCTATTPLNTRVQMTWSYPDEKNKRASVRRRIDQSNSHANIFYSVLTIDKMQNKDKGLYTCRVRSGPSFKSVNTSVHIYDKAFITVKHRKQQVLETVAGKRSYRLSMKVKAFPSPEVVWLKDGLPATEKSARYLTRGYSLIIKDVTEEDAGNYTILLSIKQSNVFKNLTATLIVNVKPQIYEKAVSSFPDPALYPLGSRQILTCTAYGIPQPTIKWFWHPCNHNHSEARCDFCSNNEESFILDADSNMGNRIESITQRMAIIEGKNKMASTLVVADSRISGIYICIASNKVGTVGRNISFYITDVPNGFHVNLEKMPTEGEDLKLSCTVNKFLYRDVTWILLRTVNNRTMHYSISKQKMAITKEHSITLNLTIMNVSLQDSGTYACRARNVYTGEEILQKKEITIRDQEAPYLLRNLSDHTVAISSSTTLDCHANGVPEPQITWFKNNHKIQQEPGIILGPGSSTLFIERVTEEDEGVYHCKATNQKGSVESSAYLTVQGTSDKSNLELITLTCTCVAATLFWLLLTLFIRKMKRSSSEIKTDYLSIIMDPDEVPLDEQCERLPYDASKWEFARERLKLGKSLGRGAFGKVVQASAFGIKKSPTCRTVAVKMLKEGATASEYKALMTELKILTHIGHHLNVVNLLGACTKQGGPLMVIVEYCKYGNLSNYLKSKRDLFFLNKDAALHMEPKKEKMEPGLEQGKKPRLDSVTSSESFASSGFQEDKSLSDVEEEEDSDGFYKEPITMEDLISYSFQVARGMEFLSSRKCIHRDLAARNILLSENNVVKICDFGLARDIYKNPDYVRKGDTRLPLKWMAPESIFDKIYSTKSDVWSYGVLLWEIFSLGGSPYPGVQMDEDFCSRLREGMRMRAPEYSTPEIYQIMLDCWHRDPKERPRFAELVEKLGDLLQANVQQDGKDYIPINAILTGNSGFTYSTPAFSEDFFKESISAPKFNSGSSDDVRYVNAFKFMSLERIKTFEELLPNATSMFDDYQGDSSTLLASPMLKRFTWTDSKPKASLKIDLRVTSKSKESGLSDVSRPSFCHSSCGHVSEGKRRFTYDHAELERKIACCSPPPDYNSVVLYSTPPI

T1 sequence (P35968 786-1356 limits assumed): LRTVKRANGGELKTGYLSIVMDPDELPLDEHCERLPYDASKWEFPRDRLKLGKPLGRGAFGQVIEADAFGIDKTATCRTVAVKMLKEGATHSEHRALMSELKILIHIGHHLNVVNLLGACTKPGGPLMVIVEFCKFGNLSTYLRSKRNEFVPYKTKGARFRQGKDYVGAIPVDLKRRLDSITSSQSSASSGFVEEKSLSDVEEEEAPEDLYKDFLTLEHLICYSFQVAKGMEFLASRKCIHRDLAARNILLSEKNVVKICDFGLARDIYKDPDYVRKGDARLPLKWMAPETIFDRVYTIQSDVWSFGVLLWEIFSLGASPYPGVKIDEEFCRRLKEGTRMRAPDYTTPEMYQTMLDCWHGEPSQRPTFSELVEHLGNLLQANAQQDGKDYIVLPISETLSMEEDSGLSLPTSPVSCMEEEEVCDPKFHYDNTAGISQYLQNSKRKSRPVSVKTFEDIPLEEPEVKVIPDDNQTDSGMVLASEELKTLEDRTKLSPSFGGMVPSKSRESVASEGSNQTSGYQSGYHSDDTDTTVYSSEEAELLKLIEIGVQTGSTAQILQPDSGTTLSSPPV
PDGFβ, sequence (P09619 33-1106): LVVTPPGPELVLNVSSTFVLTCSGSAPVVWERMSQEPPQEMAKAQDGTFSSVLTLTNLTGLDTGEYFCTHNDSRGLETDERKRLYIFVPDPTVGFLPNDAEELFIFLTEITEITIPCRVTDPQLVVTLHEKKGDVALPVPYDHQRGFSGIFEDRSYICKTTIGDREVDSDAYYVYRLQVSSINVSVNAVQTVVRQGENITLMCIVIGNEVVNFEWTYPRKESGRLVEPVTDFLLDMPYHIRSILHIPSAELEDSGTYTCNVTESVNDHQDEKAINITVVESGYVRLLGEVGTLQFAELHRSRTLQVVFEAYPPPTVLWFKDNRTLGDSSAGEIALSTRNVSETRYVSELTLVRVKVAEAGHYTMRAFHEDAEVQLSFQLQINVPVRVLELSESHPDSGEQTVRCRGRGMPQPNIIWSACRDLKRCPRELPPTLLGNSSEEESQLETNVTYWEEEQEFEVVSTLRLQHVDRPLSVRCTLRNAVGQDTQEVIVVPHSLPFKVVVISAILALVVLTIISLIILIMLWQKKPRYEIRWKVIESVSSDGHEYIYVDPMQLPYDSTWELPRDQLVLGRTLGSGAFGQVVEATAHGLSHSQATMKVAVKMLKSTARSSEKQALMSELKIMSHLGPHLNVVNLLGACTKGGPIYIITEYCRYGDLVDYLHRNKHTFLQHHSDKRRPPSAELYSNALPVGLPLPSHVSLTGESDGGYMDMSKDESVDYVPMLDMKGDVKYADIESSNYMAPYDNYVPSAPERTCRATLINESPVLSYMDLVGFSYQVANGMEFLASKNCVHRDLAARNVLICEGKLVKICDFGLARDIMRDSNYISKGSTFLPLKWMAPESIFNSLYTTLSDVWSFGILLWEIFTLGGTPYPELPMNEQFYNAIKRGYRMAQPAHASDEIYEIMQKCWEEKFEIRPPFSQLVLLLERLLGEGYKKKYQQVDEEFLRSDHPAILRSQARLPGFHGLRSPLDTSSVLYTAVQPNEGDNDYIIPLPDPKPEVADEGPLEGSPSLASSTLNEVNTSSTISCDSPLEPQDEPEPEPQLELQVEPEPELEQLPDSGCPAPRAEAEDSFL

Row | IC50 [1] | IC50 (PDGFβ) | IC50 (VEGFR1) | SMILES
1 | 42 nM | 54 nM | 62 nM | CCNC(=O)CC[C@H](NC(=O)c1c[nH]c(-c2cc(Oc3cc(C(=O)Nc4cc(C)ccc4F)ccc3F)ccn2)c1)C(=O)NCC (stereo in doubt) [Example 246, N,N′-diethyl-2-[({5-[4-(2-fluoro-5-{[(2-fluoro-5-methylphenyl)amino]carbonyl}phenoxy)pyridin-2-yl]-1H-pyrrol-3-yl}carbonyl)amino]pentanediamide]
2 | 56 nM | 157 nM | 28 nM | Cc1ccc(F)c(NC(=O)c2ccc(F)c(Oc3ccnc(-c4cc(C(=O)N[C@@H](CCC(=O)O)C(=O)O)c[nH]4)c3)c2)c1 (stereo in doubt) [Example 248, 2-[({5-[4-(2-fluoro-5-{[(2-fluoro-5-methylphenyl)amino]carbonyl}phenoxy)pyridin-2-yl]-1H-pyrrol-3-yl}carbonyl)amino]pentanedioic acid]
3 | 4 nM | 13 nM | 6 nM | Cc1ccc(F)c(NC(=O)Nc2ccc(Oc3ccnc(-c4cc(C(=O)NCCCc5nn[nH]n5)c[nH]4)c3)cc2)c1 [Example 149, 5-{4-[4-({[(2-fluoro-5-methylphenyl)amino]carbonyl}amino)phenoxy]pyridin-2-yl}-N-[3-(2H-tetrazol-5-yl)propyl]-1H-pyrrole-3-carboxamide]
4 | 5 nM | 16 nM | 7 nM | Cc1ccc(F)c(NC(=O)Nc2ccc(Oc3ccnc(-c4cc(C(=O)NCCc5nn[nH]n5)c[nH]4)c3)cc2)c1 [Example 150, 5-{4-[4-({[(2-fluoro-5-methylphenyl)amino]carbonyl}amino)phenoxy]pyridin-2-yl}-N-[2-(2H-tetrazol-5-yl)ethyl]-1H-pyrrole-3-carboxamide]
5 | 9 nM | 19 nM | 7 nM | Cc1ccc(F)c(NC(=O)Nc2ccc(Oc3ccnc(-c4cc(C(=O)NCCCN5CCCC(CO)C5)c[nH]4)c3)cc2)c1 (centres unmarked) [Example 160, 5-{4-[4-({[(2-fluoro-5-methylphenyl)amino]carbonyl}amino)phenoxy]pyridin-2-yl}-N-{3-[3-(hydroxymethyl)piperidin-1-yl]propyl}-1H-pyrrole-3-carboxamide]
6 | 5 nM | 11 nM | 6 nM | Cc1ccc(F)c(NC(=O)Nc2ccc(Oc3ccnc(-c4cc(C(=O)NCCCCC(=O)O)c[nH]4)c3)cc2)c1 [Example 166, 5-{[(5-{4-[4-({[(2-fluoro-5-methylphenyl)amino]carbonyl}amino)phenoxy]pyridin-2-yl}-1H-pyrrol-3-yl)carbonyl]amino}pentanoic acid]
7 | 14 nM | 53 nM | 32 nM | COC(=O)CNCCCNC(=O)c1c[nH]c(-c2cc(Oc3cc(C(=O)Nc4cc(C)ccc4F)ccc3F)ccn2)c1 [Example 180, methyl ({3-[({5-[4-(2-fluoro-5-{[(2-fluoro-5-methylphenyl)amino]carbonyl}phenoxy)pyridin-2-yl]-1H-pyrrol-3-yl}carbonyl)amino]propyl}amino)acetate]
8 | 22 nM | 132 nM | 65 nM | COC(=O)CNCCNC(=O)c1c[nH]c(-c2cc(Oc3cc(C(=O)Nc4cc(C)ccc4F)ccc3F)ccn2)c1 [Example 181, methyl ({2-[({5-[4-(2-fluoro-5-{[(2-fluoro-5-methylphenyl)amino]carbonyl}phenoxy)pyridin-2-yl]-1H-pyrrol-3-yl}carbonyl)amino]ethyl}amino)acetate]
9 | 19 nM | 49 nM | 51 nM | Cc1ccc(F)c(NC(=O)c2ccc(F)c(Oc3ccnc(-c4cc(C(=O)NCCCN5CCC(O)CC5)c[nH]4)c3)c2)c1 [Example 184, 5-[4-(2-fluoro-5-{[(2-fluoro-5-methylphenyl)amino]carbonyl}phenoxy)pyridin-2-yl]-N-[3-(4-hydroxypiperidin-1-yl)propyl]-1H-pyrrole-3-carboxamide]
10 | – | 63 nM | 40 nM | Cc1ccc(F)c(NC(=O)Nc2ccc(Oc3ccnc(-c4cc(C(=O)N5CCC5)c[nH]4)c3)cc2)c1 [Example 185, 1-[4-({2-[4-(azetidin-1-ylcarbonyl)-1H-pyrrol-2-yl]pyridin-4-yl}oxy)phenyl]-3-(2-fluoro-5-methylphenyl)urea]
11 | 15 nM | 98 nM | 27 nM | Cc1ccc(F)c(NC(=O)c2ccc(F)c(Oc3ccnc(-c4cc(C(=O)NCCCN5CCCC5)c[nH]4)c3)c2)c1 [Example 187, 5-[4-(2-fluoro-5-{[(2-fluoro-5-methylphenyl)amino]carbonyl}phenoxy)pyridin-2-yl]-N-(3-pyrrolidin-1-ylpropyl)-1H-pyrrole-3-carboxamide]
12 | 7 nM | 19 nM | 9 nM | Cc1ccc(F)c(NC(=O)Nc2ccc(Oc3ccnc(-c4cc(C(=O)NCCCN(C)CC(O)CO)c[nH]4)c3)cc2F)c1 (centres unmarked) [Example 195, N-{3-[(2,3-dihydroxypropyl)(methyl)amino]propyl}-5-{4-[3-fluoro-4-({[(2-fluoro-5-methylphenyl)amino]carbonyl}amino)phenoxy]pyridin-2-yl}-1H-pyrrole-3-carboxamide]
13 | 8 nM | 19 nM | 10 nM | COC(=O)CNCCCNC(=O)c1c[nH]c(-c2cc(Oc3ccc(NC(=O)Nc4cc(C)ccc4F)c(F)c3)ccn2)c1 [Example 196, methyl [(3-{[(5-{4-[3-fluoro-4-({[(2-fluoro-5-methylphenyl)amino]carbonyl}amino)phenoxy]pyridin-2-yl}-1H-pyrrol-3-yl)carbonyl]amino}propyl)amino]acetate]
14 | 8 nM | 15 nM | 9 nM | Cc1ccc(F)c(NC(=O)Nc2ccc(Oc3ccnc(-c4cc(C(=O)NCCCN5CCCC(CO)C5)c[nH]4)c3)cc2F)c1 (centres unmarked) [Example 205, 5-{4-[3-fluoro-4-({[(2-fluoro-5-methylphenyl)amino]carbonyl}amino)phenoxy]pyridin-2-yl}-N-{3-[3-(hydroxymethyl)piperidin-1-yl]propyl}-1H-pyrrole-3-carboxamide]
15 | 9 nM | 17 nM | 12 nM | Cc1ccc(F)c(NC(=O)Nc2ccc(Oc3ccnc(-c4cc(C(=O)NCCCN5CCOC(CO)C5)c[nH]4)c3)cc2F)c1 (centres unmarked) [Example 206, 5-{4-[3-fluoro-4-({[(2-fluoro-5-methylphenyl)amino]carbonyl}amino)phenoxy]pyridin-2-yl}-N-{3-[2-(hydroxymethyl)morpholin-4-yl]propyl}-1H-pyrrole-3-carboxamide]
16 | 7 nM | 17 nM | 10 nM | Cc1ccc(F)c(NC(=O)Nc2ccc(Oc3ccnc(-c4cc(C(=O)NCCCN5CCC(O)CC5)c[nH]4)c3)cc2F)c1 [Example 207, 5-{4-[3-fluoro-4-({[(2-fluoro-5-methylphenyl)amino]carbonyl}amino)phenoxy]pyridin-2-yl}-N-[3-(4-hydroxypiperidin-1-yl)propyl]-1H-pyrrole-3-carboxamide]
17 | 12 nM | 13 nM | 8 nM | Cc1ccc(F)c(NC(=O)Nc2ccc(Oc3ccnc(-c4cc(C(=O)NCC(=O)O)c[nH]4)c3)cc2F)c1 [Example 210, {[(5-{4-[3-fluoro-4-({[(2-fluoro-5-methylphenyl)amino]carbonyl}amino)phenoxy]pyridin-2-yl}-1H-pyrrol-3-yl)carbonyl]amino}acetic acid]
18 | 22 nM | 23 nM | 8 nM | Cc1ccc(F)c(NC(=O)Nc2ccc(Oc3ccnc(-c4cc(C(=O)NCCCN(CC(=O)O)CC(=O)O)c[nH]4)c3)cc2)c1 [Example 214, 2,2′-[(3-{[(5-{4-[4-({[(2-fluoro-5-methylphenyl)amino]carbonyl}amino)phenoxy]pyridin-2-yl}-1H-pyrrol-3-yl)carbonyl]amino}propyl)imino]diacetic acid]
19 | – | 15 nM | 14 nM | Cc1cccc(NC(=O)Nc2ccc(Oc3ccnc(-c4cc(C(=O)NCCCN5CCC(O)CC5)c[nH]4)c3)cc2)c1 [Example 235, N-[3-(4-hydroxypiperidin-1-yl)propyl]-5-{4-[4-({[(3-methylphenyl)amino]carbonyl}amino)phenoxy]pyridin-2-yl}-1H-pyrrole-3-carboxamide]
20 | 67 nM | 66 nM | – | COC(=O)CC[C@H](NC(=O)c1c[nH]c(-c2cc(Oc3cc(C(=O)Nc4cc(C)ccc4F)ccc3F)ccn2)c1)C(=O)O [Example 262, 2-[({5-[4-(2-fluoro-5-{[(2-fluoro-5-methylphenyl)amino]carbonyl}phenoxy)pyridin-2-yl]-1H-pyrrol-3-yl}carbonyl)amino]-5-methoxy-5-oxopentanoic acid]
21 | 14 nM | 46 nM | – | CCNC(=O)CC[C@H](NC(=O)c1c[nH]c(-c2cc(Oc3ccc(NC(=O)Nc4cc(C)ccc4F)cc3)ccn2)c1)C(=O)NCC [Example 263, N,N′-diethyl-2-{[(5-{4-[4-({[(2-fluoro-5-methylphenyl)amino]carbonyl}amino)phenoxy]pyridin-2-yl}-1H-pyrrol-3-yl)carbonyl]amino}pentanediamide]
